Measured values reported in PubChem BioAssay AID330 (DTP/NCI, 2004).
Toxic doses and inconclusive results are not listed. Rule for the calls: active = survival T/C of 150% or more; inactive = T/C below 125% in these data.

Test system: P388 leukemia ip, CD2F1 mice, survival T/C
Assay: NCI In Vivo Anticancer Drug Screen. Data for tumor model P388 Leukemia (intraperitoneal) in CD2F1 (CDF1) mice
Conditions: endpoint: median survival time, higher = longer survival
How it was run: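 Mice carrying the transplanted tumor received test compound or vehicle. Survival was recorded in each group, and the value is the treated-group measurement divided by that of the vehicle-treated control group.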

[1] = dose: 12.5 mg/kg/injection, schedule: Q01DX001 (ip), vehicle: Klucel (hydroxypropylcellulose) (HPC)
[2] = dose: 25.0 mg/kg/injection, schedule: Q01DX001 (ip), vehicle: Klucel (hydroxypropylcellulose) (HPC)
[3] = dose: 25.0 mg/kg/injection, schedule: Q01DX009 (ip), vehicle: Klucel (hydroxypropylcellulose) (HPC)
[4] = dose: 50.0 mg/kg/injection, schedule: Q01DX009 (ip), vehicle: Klucel (hydroxypropylcellulose) (HPC)
[5] = dose: 100.0 mg/kg/injection, schedule: Q01DX009 (ip), vehicle: Klucel (hydroxypropylcellulose) (HPC)
[6] = dose: 60.0 mg/kg/injection, schedule: Q01DX005 (ip), vehicle: saline with Tween-80
[7] = dose: 120.0 mg/kg/injection, schedule: Q01DX005 (ip), vehicle: saline with Tween-80
[8] = dose: 240.0 mg/kg/injection, schedule: Q01DX005 (ip), vehicle: saline with Tween-80

Measured: T/C

CCOC(=O)C(C(=O)OCC)=S1c2ccccc2Sc2ccccc21
inactive: dose: 60.0 mg/kg/injection, schedule: Q01DX005 (ip), vehicle: Klucel (hydroxypropylcellulose) (HPC) 90 % of control | dose: 120.0 mg/kg/injection, schedule: Q01DX005 (ip), vehicle: Klucel (hydroxypropylcellulose) (HPC) 89 % of control

Oc1cc2c(ccc3ccccc32)c2c1CCC2
inactive: dose: 6.25 mg/kg/injection, schedule: Q01DX001 (ip), vehicle: Klucel (hydroxypropylcellulose) (HPC) 106 % of control | [1] 104 % of control | [2] 119 % of control

O=S1(=O)OCCO1
inactive: dose: 12.5 mg/kg/injection, schedule: Q01DX005 (ip), vehicle: saline 106 % of control | dose: 25.0 mg/kg/injection, schedule: Q01DX005 (ip), vehicle: saline 108 % of control

CC1(C)CC(NCc2ccccc2)=CC(=S)N1
inactive: dose: 50.0 mg/kg/injection, schedule: Q01DX005 (ip), vehicle: Klucel (hydroxypropylcellulose) (HPC) 100 % of control | dose: 100.0 mg/kg/injection, schedule: Q01DX005 (ip), vehicle: Klucel (hydroxypropylcellulose) (HPC) 103 % of control | dose: 200.0 mg/kg/injection, schedule: Q01DX005 (ip), vehicle: Klucel (hydroxypropylcellulose) (HPC) 93 % of control

COc1cccc2c1C(=O)C(C1CO1)=CC2=O (stereo not drawn)
inactive: [1] 88 % of control | [2] 95 % of control

COC1CCC(/C=C(\C#N)C2CCC(OC)CC2)CC1 (stereo not drawn)
inactive: [3] 107 % of control | [4] 100 % of control | [5] 96 % of control | dose: 200.0 mg/kg/injection, schedule: Q01DX009 (ip), vehicle: Klucel (hydroxypropylcellulose) (HPC) 92 % of control

O=C(Nc1ccccc1C(=O)NCC1CC1)c1cccs1
inactive: [6] 106 % of control | [7] 100 % of control | [8] 99 % of control

O=C(/C=C/c1ccccc1)c1ccc(O)cc1
inactive: dose: 6.25 mg/kg/injection, schedule: Q01DX009 (ip), vehicle: saline with Tween-80 103 % of control | dose: 12.5 mg/kg/injection, schedule: Q01DX009 (ip), vehicle: saline with Tween-80 109 % of control | dose: 25.0 mg/kg/injection, schedule: Q01DX009 (ip), vehicle: saline with Tween-80 110 % of control | dose: 50.0 mg/kg/injection, schedule: Q04DX003 (ip), vehicle: saline with Tween-80 98 % of control | dose: 100.0 mg/kg/injection, schedule: Q04DX003 (ip), vehicle: saline with Tween-80 98 % of control | dose: 400.0 mg/kg/injection, schedule: Q04DX003 (ip), vehicle: saline with Tween-80 114 % of control

O=C(c1ccccc1)N1CC2CCC1CN2C(=O)c1ccccc1
inactive: dose: 12.5 mg/kg/injection, schedule: Q01DX009 (ip), vehicle: other 105 % of control | dose: 25.0 mg/kg/injection, schedule: Q01DX009 (ip), vehicle: other 105 % of control | dose: 50.0 mg/kg/injection, schedule: Q01DX009 (ip), vehicle: other 100 % of control | dose: 100.0 mg/kg/injection, schedule: Q01DX009 (ip), vehicle: other 100 % of control | dose: 200.0 mg/kg/injection, schedule: Q01DX009 (ip), vehicle: other 105 % of control

O=C(CC1=NC2NN(c3ccccc3)C(=O)C2=C1CC(=O)c1ccc(F)cc1)c1ccc(F)cc1 (stereo not drawn)
inactive: [6] 98 % of control | [7] 97 % of control | [8] 97 % of control

COCC12CCC(OC)C34C5CC6(O)C(OC)C=C(C5C6OC(=O)c5ccccc5)C(C(OC)C13)C4N(C)C2 (stereo not drawn)
inactive: [3] 100 % of control | [4] 95 % of control | [5] 100 % of control

CCN(CC)CCNC(=O)C(=O)NCCN(CC)CC
inactive: dose: 50.0 mg/kg/injection, schedule: Q01DX005 (ip), vehicle: saline 97 % of control | dose: 100.0 mg/kg/injection, schedule: Q01DX005 (ip), vehicle: saline 99 % of control
